Source: patent publication US8324380B2, “Amino-heteroaryl-containing prokineticin 1 receptor antagonists” (Janssen Pharmaceutica NV, priority 2007, dated 2012)
pIC50: −log10 of the molar value. Like-named read-outs stand apart in the source and are kept apart here.

Target: T1, GPR73 (prokineticin 1 receptor) (Homo sapiens, UniProt Q8TCW9)
T1 construct: expressed in transfected cells; host or cells: HEK 293
Assay: PK1 functional assay: Ca2+ mobilization on the FLIPR
Assay type: cell-based
Conditions: for inhibition at 10 µM: read-out: Ca^2+ Mobilization % Inh @10 µM; for pIC50: HEK 293 GPR73 cells, read-out: Ca^2+ Mobilization IC50
Method: At a time of 24 h prior to running the assay, in cell culture media (DMEM containing high Glucose and L-glutamine, 10% FBS, 1% Pen/Streptomycin, 1% Sodium Pyruvate, 20 mM HEPES, Zeocin 200 mg/L), 100 µL of 1.3*10^6/ml HEK 293 GPR73 (prokineticin 1 receptor) expressing cells were plated in a 96 well poly-d-lysine coated plate (Costar), and incubated at 37° C. and 5% CO2. On the day in which the assay was run, the media was removed and 200 µL of 5× Calcium Plus Dye (Molecular Devices) which was previously resuspended with 200 mL of assay buffer [HBSS w/Ca^2+ and Mg^2+ w/o phenol red, 20 mM HEPES, 0.1% BSA, 10 mL probenecid (710 mg probenecid in 5 mL of 1N NaOH, to which was then added 5 mL HBSS containing 20 mM HEPES)] was added to each well of the 96-well plate. The plate was incubated at 37° C. and 5% CO2 for 30 min in dark. The plate was removed and allowed to reach RT for 15 min in the dark. The assay was then run on the FLIPR. In Brief: base line read for 1 min, compound added (25 μL) and incubated for 4 min, 15 seconds, PK1 ligand preparation added (25 μL) for a final concentration of a previously determined EC50 and fluorescence was counted for 1 min, 45 seconds. Baseline is described as the amount of relative fluorescence read when buffer alone is added to cells. Baseline was subtracted from all wells. Percent of control was calculated as follows: (Baseline subtracted well value is divided by baseline subtracted max value)*100. Percent inhibition is 100 minus the percent of control value.
The IC50 is defined as the amount of a given compound required to inhibit 50% of the maximum signal that is generated by the concentration of PK1 preparation used in our assay. IC50 values were calculated using GraphPad Prism.

T1 sequence (Q8TCW9 whole entry, species assumed): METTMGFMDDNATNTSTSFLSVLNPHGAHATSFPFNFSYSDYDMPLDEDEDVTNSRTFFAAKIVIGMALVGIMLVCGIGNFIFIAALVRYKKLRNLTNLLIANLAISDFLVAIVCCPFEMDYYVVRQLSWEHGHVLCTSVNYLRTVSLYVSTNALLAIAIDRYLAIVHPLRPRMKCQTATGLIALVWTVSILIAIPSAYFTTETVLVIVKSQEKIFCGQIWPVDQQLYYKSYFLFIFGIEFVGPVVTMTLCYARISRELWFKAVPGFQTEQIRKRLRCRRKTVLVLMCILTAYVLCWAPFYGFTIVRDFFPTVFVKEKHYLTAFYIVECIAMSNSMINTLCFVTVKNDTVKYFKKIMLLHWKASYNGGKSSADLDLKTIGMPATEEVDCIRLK

Structure (SMILES): NC1=Nc2ccc(F)cc2CN1CCNc1nc(=O)n(Cc2ccc(F)cc2)c(=O)n1Cc1ccc(OC(F)F)cc1 [Cpd 45]
- inhibition at 10 µM (10 µM): 101%
- pIC50: 7.04

Structure (SMILES): COc1ccc(Cn2c(NCCn3c(N)nc4cc(F)ccc43)nc(=O)n(Cc3ccc(F)cc3)c2=O)cc1 [Cpd 5]
- inhibition at 10 µM (10 µM): 102%
- pIC50: 7.16

Structure (SMILES): NC1=Nc2cccc(Cl)c2CN1CCNc1nc(=O)n(Cc2ccc(F)cc2)c(=O)n1Cc1ccc(OC(F)(F)F)cc1 [Cpd 48]
- inhibition at 10 µM (10 µM): 101%
- pIC50: 6.94

Structure (SMILES): Nc1nc2c(F)cc(F)cc2n1CCNc1nc(=O)n(Cc2ccc(F)cc2)c(=O)n1Cc1ccc(OC(F)(F)F)cc1 [Cpd 36]
- inhibition at 10 µM (10 µM): 50%
- pIC50: 5.08

Structure (SMILES): Cn1nnc2cc(Cn3c(=O)nc(NCCn4c(N)nc5ccccc54)n(Cc4ccc5c(c4)CCO5)c3=O)ccc21 [Cpd 78]
- inhibition at 10 µM (10 µM, (further determination)): 104%
- inhibition at 10 µM (10 µM): 102%
- pIC50 (IC50 (further determination)): 6.89
- pIC50: 7.18

Structure (SMILES): COc1ccc(Cn2c(NCCNc3nc4ccccc4[nH]3)nc(=O)n(Cc3ccc(Cl)c(Cl)c3)c2=O)cc1 [Cpd 1, 6-[2-(1H-Benzoimidazol-2-ylamino)-ethylamino]-3-(3,4-dichloro-benzyl)-1-(4-methoxy-benzyl)-1H-[1,3,5]triazine-2,4-dione]
- inhibition at 10 µM (10 µM): 40.4%
- pIC50: < 5.00

Structure (SMILES): Cn1nnc2cc(Cn3c(=O)nc(NCCc4cnc(N)[nH]4)n(Cc4ccc5c(c4)CCO5)c3=O)ccc21 [Cpd 68]
- inhibition at 10 µM (10 µM): 78%
- pIC50: 5.85

Structure (SMILES): NC1=Nc2cc(F)ccc2CN1CCNc1nc(=O)n(Cc2ccc(F)cc2)c(=O)n1Cc1ccc(OC(F)(F)F)cc1 [Cpd 52]
- inhibition at 10 µM (10 µM): 104%
- pIC50: 6.44

Structure (SMILES): NC1=Nc2cc(Cl)ccc2CN1CCNc1nc(=O)n(Cc2ccc(F)cc2)c(=O)n1Cc1ccc(OC(F)(F)F)cc1 [Cpd 50]
- inhibition at 10 µM (10 µM): 99%
- pIC50: 6.48

Structure (SMILES): Nc1nc2ccc(F)c(F)c2n1CCNc1nc(=O)n(Cc2ccc(F)cc2)c(=O)n1Cc1ccc(OC(F)(F)F)cc1 [Cpd 37]
- inhibition at 10 µM (10 µM): 72%
- pIC50: 5.66

Structure (SMILES): CSc1ccc(Cn2c(=O)nc(NCCc3cnc(N)[nH]3)n(Cc3ccc(OC(F)F)cc3)c2=O)cc1 [Cpd 80]
- inhibition at 10 µM (10 µM): 98%
- pIC50: 7.49

Structure (SMILES): CCc1ccc(Cn2c(=O)nc(NCCc3cnc(N)[nH]3)n(Cc3ccc4c(c3)CCO4)c2=O)cc1 [Cpd 65]
- inhibition at 10 µM (10 µM): 35%
- pIC50: < 5.00

Structure (SMILES): Nc1nc2ccccc2n1CCNc1nc(=O)n(Cc2ccc(F)cc2)c(=O)n1Cc1ccc(OC(F)F)cc1 [Cpd 20]
- inhibition at 10 µM (10 µM, (further determination)): 101%
- inhibition at 10 µM (10 µM): 103%
- pIC50 (IC50 (further determination)): 7.28
- pIC50: 7.28

Structure (SMILES): COc1ccc(Cn2c(NCCn3c(N)nc4ccccc43)nc(=O)n(Cc3ccc4c(c3)CCO4)c2=O)cc1 [Cpd 72]
- inhibition at 10 µM (10 µM): 102%
- pIC50: 7.24

Structure (SMILES): CCc1ccc(Cn2c(=O)nc(NCCc3cnc(N)[nH]3)n(Cc3ccc(OC)cc3)c2=O)cc1 [Cpd 60]
- inhibition at 10 µM (10 µM): 85%
- pIC50: 6.53

Structure (SMILES): Nc1nc2c(F)cccc2n1CCNc1nc(=O)n(Cc2ccc(F)cc2)c(=O)n1Cc1ccc(OC(F)(F)F)cc1 [Cpd 39]
- inhibition at 10 µM (10 µM): 80%
- pIC50: 6.42

Structure (SMILES): Nc1nc2c(F)cc(F)cc2n1CCNc1nc(=O)n(Cc2ccc(F)cc2)c(=O)n1Cc1ccc(OC(F)F)cc1 [Cpd 28]
- inhibition at 10 µM (10 µM): 39%
- pIC50: < 5.00

Structure (SMILES): COc1ccc(Cn2c(NCCc3cnc(N)[nH]3)nc(=O)n(Cc3ccc4c(c3)nnn4C)c2=O)cc1 [Cpd 67]
- inhibition at 10 µM (10 µM): 93%
- pIC50: 6.77

Structure (SMILES): COc1ccc2c(c1)N=C(N)N(CCNc1nc(=O)n(Cc3ccc(F)cc3)c(=O)n1Cc1ccc(OC(F)F)cc1)C2 [Cpd 57]
- inhibition at 10 µM (10 µM): 95%
- pIC50: 6.84

Structure (SMILES): Nc1nc2ccccc2n1CCNc1nc(=O)n(Cc2ccc(Cl)c(Cl)c2)c(=O)n1Cc1ccc2c(c1)CCO2 [Cpd 73]
- inhibition at 10 µM (10 µM): 90%
- pIC50: 6.73

Structure (SMILES): COc1ccc(Cn2c(C(=O)NCCn3c(N)nc4ccccc43)cc(=O)n(Cc3ccc(OC)cc3)c2=O)cc1 [Cpd 13, 1,3-Bis-(4-methoxy-benzyl)-2,6-dioxo-1,2,3,6-tetrahydro-pyrimidine-4-carboxylic acid [2-(2-amino-benzoimidazol-1-yl)-ethyl]-amide]
- inhibition at 10 µM (10 µM): 51%
- pIC50: 5.13
